# Assay results from paper PMC9723630 (2022).
# Columns and labels:
# [1] = tested on: D2-HP (DNA, hairpin) CGCGAAGCATTCGCG; assay: ITC; conditions: K+ (20 mM potassium phosphate, 100 mM KCl; 120 mM K+); pH 7.0, 5% DMSO, 40 °C
# [2] = tested on: QD2-l-2bp (DNA, G4) GGTTGGCGGCACGGGTTGG; assay: ITC; conditions: K+ (20 mM potassium phosphate, 100 mM KCl; 120 mM K+); pH 7.0, 5% DMSO, 40 °C; site 1 of 2
# [3] = tested on: QD3-sbl (DNA, G4) TTAGGTGGGTAGGGTGGGCTAGTCATTTTGACTAGG; assay: ITC; conditions: K+ (20 mM potassium phosphate, 100 mM KCl; 120 mM K+), pH 7.0, 5% DMSO, 40 °C
# [4] = tested on: D3-HP (DNA, hairpin) CTAGTCATTTTGACTAG; assay: ITC; conditions: K+ (20 mM potassium phosphate, 100 mM KCl; 120 mM K+), pH 7.0, 5% DMSO, 40 °C
# [5] = tested on: TBA (DNA, G4) GGTTGGTGTGGTTGG; assay: ITC; conditions: K+ (20 mM potassium phosphate, 100 mM KCl; 120 mM K+); pH 7.0, 5% DMSO, 40 °C
# [6] = tested on: QD2-l (DNA, G4) GGTTGGCGCGAAGCATTCGCGGGTTGG; assay: CD melting at 295 nm; conditions: K+ (10 mM potassium phosphate), pH 7.0, 5 µM DNA, 1:1 ligand (5 µM), free Tm 50.3 °C
# [7] = tested on: QD2-l (DNA, G4) GGTTGGCGCGAAGCATTCGCGGGTTGG; assay: ITC; conditions: K+ (20 mM potassium phosphate, 100 mM KCl; 120 mM K+), pH 7.0, 5% DMSO, 40 °C, site 1 of 2
# [8] = tested on: Q3-sbl (DNA, G4) TTAGGGTGGTAGGGTGGGGAAGG; assay: ITC; conditions: K+ (20 mM potassium phosphate, 100 mM KCl; 120 mM K+), pH 7.0, 5% DMSO, 40 °C
# [9] = tested on: QD3-sbl (DNA, G4) TTAGGTGGGTAGGGTGGGCTAGTCATTTTGACTAGG; assay: NMR titration and solution structure; conditions: K+ (10 mM potassium phosphate for structure; 120 mM K+ for titration); pH 7.0, 30 °C titration; intercalation at quadruplex-duplex junction, slow exchange
# [10] = tested on: Q3-sbl2 (DNA, G4) TTAGGTGGGTAGGGTGGGTGTG; assay: NMR titration; conditions: K+ (10 mM potassium phosphate); pH 7.0, 30 °C, 0.75 mM DNA; stacks on 5'-tetrad
smiles,measurement,setting,value
CCN(CC)CCCNC(=O)c1ccc(-c2c3cccc(C)c3[n+](C)c3c2[nH]c2c(C)cccc23)cc1,Ka,[1],45000 ± 14000 M⁻¹
same,Ka,[2],7.1e+06 ± 77000 M⁻¹
same,Ka,[3]; site 1 of 2,1.3e+07 ± 2.9e+06 M⁻¹
same,Ka,[4],16000 ± 2200 M⁻¹
same,Ka,[5],26000 ± 8600 M⁻¹
same,Tm increase,[6],~ 13 °C
same,Ka,[7]; Table S13 prints error 1.4×10^6,8.3e+06 ± 120000 M⁻¹
same,Ka,[8]; site 1 of 2,3.2e+06 ± 1.4e+06 M⁻¹
CCOCCCNC(=O)c1ccc(-c2c3cccc(C)c3[n+](C)c3c2[nH]c2c(C)cccc23)cc1,Ka,[7],2.6e+06 ± 700000 M⁻¹
CN(C)CCCNc1c2ccccc2nc2c1[nH]c1ccccc12,Ka,[3]; site 1 of 2,1.1e+07 ± 3.3e+06 M⁻¹
same,Ka,[4]; site 1 of 2,1.3e+06 ± 120000 M⁻¹
same,Tm increase,[6],~ 5 °C
same,Ka,[8]; site 1 of 2,2.1e+06 ± 610000 M⁻¹
CN(C)CCN1C(=O)c2ccc3c4c(ccc(c24)C1=O)C(=O)N(CCN(C)C)C3=O,Ka,[3]; authors: competing sites may not be separated,120000 ± 25000 M⁻¹
same,Ka,[4],72000 ± 23000 M⁻¹
same,Ka,[8],95000 ± 11000 M⁻¹
CN(C)c1ccc(Nc2c3ccc(NC(=O)CCN4CCCC4)cc3nc3cc(NC(=O)CCN4CCCC4)ccc23)cc1,Ka,"[3]; site 1 of 2, authors: competing sites may not be separated",1.4e+07 ± 6.1e+06 M⁻¹
same,Ka,[4]; site 1 of 2,2.9e+06 ± 690000 M⁻¹
same,Ka,[8]; site 1 of 2,3e+07 ± 2.3e+06 M⁻¹
CN1C(=Cc2cc[n+](C)c3ccccc23)Sc2ccccc21,Ka,[3]; site 1 of 2,1.1e+06 ± 27000 M⁻¹
same,Ka,[4],41000 ± 2700 M⁻¹
same,Ka,[8],170000 ± 67000 M⁻¹
C[n+]1cc(NC(=O)c2ccc3ccc4ccc(C(=O)Nc5cc6ccccc6[n+](C)c5)nc4c3n2)cc2ccccc21,binding,[9],yes
same,Tm increase,[6]; complex 74 °C,~ 24 °C
same,binding,[10],yes
Cc1cccc2c1[nH]c1c(-c3ccc(C(=O)NCCCN(C)CCCN)cc3)c3cccc(C)c3[n+](C)c12,Ka,[7],7.9e+06 ± 900000 M⁻¹
